This is an account of results in patent US10183021B2, “sGC stimulators” (Ironwood Pharmaceuticals, Inc., priority 2013, dated 2019).

What is called EC50 is the concentration needed to bring the measured effect to its halfway point.

Chain of soluble guanylate cyclase (sGC) (Q02153 whole entry): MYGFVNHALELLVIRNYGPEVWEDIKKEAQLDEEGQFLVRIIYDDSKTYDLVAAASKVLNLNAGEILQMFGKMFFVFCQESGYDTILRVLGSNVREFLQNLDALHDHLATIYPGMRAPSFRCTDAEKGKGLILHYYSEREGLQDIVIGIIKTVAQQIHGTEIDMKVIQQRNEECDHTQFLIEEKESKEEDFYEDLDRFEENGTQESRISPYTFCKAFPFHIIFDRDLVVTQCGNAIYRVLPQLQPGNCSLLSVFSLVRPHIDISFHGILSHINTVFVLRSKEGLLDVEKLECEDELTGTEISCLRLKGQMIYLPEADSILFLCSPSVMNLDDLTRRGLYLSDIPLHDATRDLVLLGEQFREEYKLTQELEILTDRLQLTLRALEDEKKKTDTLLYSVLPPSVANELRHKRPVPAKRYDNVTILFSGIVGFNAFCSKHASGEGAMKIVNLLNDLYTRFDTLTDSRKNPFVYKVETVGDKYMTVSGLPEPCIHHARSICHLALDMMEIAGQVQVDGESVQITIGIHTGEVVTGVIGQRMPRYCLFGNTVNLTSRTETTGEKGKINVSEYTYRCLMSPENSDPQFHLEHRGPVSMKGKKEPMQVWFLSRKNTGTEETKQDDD
Chain of soluble guanylate cyclase (sGC) (Q02108 whole entry): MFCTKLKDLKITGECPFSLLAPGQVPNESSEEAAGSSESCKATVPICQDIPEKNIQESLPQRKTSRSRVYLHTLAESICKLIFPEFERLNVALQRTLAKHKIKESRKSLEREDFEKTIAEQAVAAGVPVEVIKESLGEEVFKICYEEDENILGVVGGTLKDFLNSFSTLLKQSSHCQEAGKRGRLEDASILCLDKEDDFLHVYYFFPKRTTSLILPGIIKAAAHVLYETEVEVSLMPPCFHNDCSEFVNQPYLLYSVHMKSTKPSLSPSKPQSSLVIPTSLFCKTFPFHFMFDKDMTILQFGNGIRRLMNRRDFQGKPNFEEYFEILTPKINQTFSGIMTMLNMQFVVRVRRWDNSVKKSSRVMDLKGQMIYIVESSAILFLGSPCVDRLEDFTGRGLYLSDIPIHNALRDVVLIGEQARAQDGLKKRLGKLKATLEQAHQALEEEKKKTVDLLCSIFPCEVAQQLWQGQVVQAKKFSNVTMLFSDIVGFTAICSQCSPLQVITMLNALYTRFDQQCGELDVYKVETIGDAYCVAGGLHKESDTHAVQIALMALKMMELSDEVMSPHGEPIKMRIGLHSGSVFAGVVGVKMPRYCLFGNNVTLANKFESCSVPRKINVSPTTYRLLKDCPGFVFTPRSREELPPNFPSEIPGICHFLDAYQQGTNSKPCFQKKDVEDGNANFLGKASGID

One assay addresses soluble guanylate cyclase (sGC) (Homo sapiens (Human), UniProt Q02108+Q02153). Kind of assay: sGC-HEK-cGMP assay, new protocol with DETA-NONOate, LC/MS detection (Example 2C). Particulars: HEK293 cells, 10 μM DETA-NONOate, LC/MS detection; concentration eliciting 50% of high control response (30 μM I-329); read-out: Absolute EC50 (uM) - binned. The format is cell-based. The protocol: Human embryonic kidney cells (HEK293), endogenously expressing soluble guanylate cyclase (sGC), were used to evaluate the activity of test compounds. Compounds stimulating the sGC enzyme should cause an increase in the intracellular concentration of cGMP. HEK 293 cells were seeded in Dulbecco's Modification of Eagle's Medium supplemented with fetal bovine serum (10% final) and penicillin (100 U/mL)/streptomycin (100 μg/mL) in a 50 μL volume at a density of 1.5×10^4 cells/well in a poly-D-lysine coated 384 well flat bottom plate. Cells were incubated overnight at 37° C. in a humidified chamber with 5% CO2. Medium was aspirated and cells were washed with 1× Hank's Buffered Saline Salt Solution (50 μL). Cells were then incubated for 15 minutes at 37° C. with 50 μL of a 0.5 mM 3-isobutyl-1-methylxanthine (IBMX) solution. Test article and Diethylenetriamine NONOate (DETA-NONOate) solutions (x μM concentration for test article solution and 10 μM concentration for DETA-NONOate solution; wherein x is one of the following concentrations);
were then added to the assay mixture and the resulting mixture incubated at 37° C. for 20 minutes. After the 20 minute incubation, the assay mixture was aspirated and 10% acetic acid containing 150 ng/mL+3-cGMP (internal standard for LCMS) (50 μL) was added to the cells. The plate was incubated at 4° C. for 30 minutes in the acetic acid solution to stop the reaction and lyse the cells. The plates were then centrifuged at 1,000 g for 3 minutes at 4° C. and the supernatant transferred to a clean reaction plate for LCMS analysis.
cGMP concentrations were determined from each sample using the LCMS conditions below (Table 5) and calculated standard curve.
Data were normalized to a high control using the following equation: 100*(Sample−Low Control)/(High Control−Low Control), where the low control is the average of 16 samples treated with 1% DMSO, and the high control is the average of 16 samples treated with 30 μM of 1-329 Data were fit using a 4-parameter fit (log(agonist) vs. response—variable slope) using GraphPad Prism Software v.5. n=2 for all compounds. […] Compounds failing to elicit a minimum response of 50% are reported as >30 μM.
As for `O=S(=O)(CC(F)(F)F)Nc1ccnc(-c2cc(-c3ccon3)n(Cc3ccccc3F)n2)n1` [Compound I-444], the half-maximal effective concentration (EC50) was 0.101 to 1 µM.

Staying with this assay, now noted: read-out: Absolute EC50 (uM) - binned.
As to `NC(=O)C1(O)CCN(c2nc(-c3cc(-c4ccon4)n(Cc4ccccc4F)n3)ncc2F)CC1` [Compound I-438], the 50% effective concentration (EC50) is < 0.1 µM.
On the same count and under the same terms, in the case of `O=S(=O)(CCNc1nc(-c2cc(-c3ccon3)n(Cc3ccccc3F)n2)ncc1F)NCCO` [Compound I-439] it was < 0.1 µM; in that of `O=C(NC1CN(c2nc(-c3cc(-c4ccon4)n(Cc4ccccc4F)n3)ncc2F)C1)C1(O)CC1` [Compound I-440], 0.101 to 1 µM.
The same measure, in the same setting: next, `O=c1[nH]nc(CNc2nc(-c3cc(-c4ccon4)n(Cc4ccccc4F)n3)ncc2F)[nH]1` [Compound I-441]: 0.101 to 1 µM; `O=c1nc[nH]n1-c1nc(-c2cc(-c3ccon3)n(Cc3ccccc3F)n2)ncc1F` [Compound I-442]: > 1 µM.
Still for that read-out and setting: next, `NC(=O)C(O)CNc1nc(-c2cc(-c3ccon3)n(Cc3ccccc3F)n2)ncc1F` (stereo not shown) [Compound I-443]: 0.101 to 1 µM; `O=S(=O)(CC(F)(F)F)Nc1ccnc(-c2cc(-c3ccon3)n(Cc3ccccc3F)n2)n1` [Compound I-444]: 0.101 to 1 µM; `O=S(=O)(CCC(F)(F)F)Nc1nc(-c2cc(-c3ccon3)n(Cc3ccccc3F)n2)ncc1F` [Compound I-445]: 0.101 to 1 µM.
As for `COCCS(=O)(=O)Nc1nc(-c2cc(-c3ccon3)n(Cc3ccccc3F)n2)ncc1F` [Compound I-446], the EC50 was > 1 µM.
As for `O=C(O)c1ccc(CNc2nc(-c3cc(-c4ccon4)n(Cc4ccccc4F)n3)ncc2F)s1` [Compound I-448], the EC50 lay within 0.101 to 1 µM.
On the same count and under the same terms, next, `O=C(O)CCCCNc1nc(-c2cc(-c3ccon3)n(Cc3ccccc3F)n2)ncc1F` [Compound I-449]: < 0.1 µM; `CC(=O)c1cc(-c2ncc(F)c(O)n2)nn1Cc1ccccc1F` [Compound I-450]: > 1 µM.
On the same count and under the same terms, in the case of `CC(=O)c1cc(-c2ncc(F)c(N(C)CC3(C(=O)O)CC3)n2)nn1Cc1ccccc1F` [Compound I-451] it was 0.101 to 1 µM; in that of `NS(=O)(=O)Nc1ccnc(-c2cc(-c3ccon3)n(Cc3ccccc3F)n2)n1` [Compound I-456], 0.101 to 1 µM.
Still for that read-out and setting: next, `C[C@H]1CCCN(c2nc(-c3cc(C#N)n(Cc4ccccc4F)n3)ncc2F)[C@H]1C(=O)O` [Compound I-457]: 0.101 to 1 µM.
For `O=C1C=C(O)CC(C(=O)Nc2ccnc(-c3cc(-c4ccon4)n(Cc4ccccc4F)n3)n2)C1` (stereo not shown) [Compound I-458], the concentration for a half-maximal effect (EC50) is > 1 µM.
Same read-out and setting: in the case of `O=C1CCC(C(=O)Nc2ccnc(-c3cc(-c4ccon4)n(Cc4ccccc4F)n3)n2)N1` (stereo not shown) [Compound I-459] it was > 1 µM; in that of `N#CC1(C(=O)Nc2nc(-c3cc(-c4ccon4)n(Cc4ccccc4F)n3)ncc2F)CC1` [Compound I-460], > 1 µM; in that of `O=C(Nc1ccnc(-c2cc(-c3ccon3)n(Cc3ccccc3F)n2)n1)C1(OCc2ccccc2)CC1` [Compound I-461], > 1 µM.
Regarding `CC(=O)c1cc(-c2ncc(F)c(NC(CO)CO)n2)nn1Cc1ccccc1F` [Compound I-462], the concentration for a half-maximal effect (EC50) is > 1 µM.
Turning to `CC(=O)c1cc(-c2ncc(F)c(N3CCC[C@H](C)[C@@H]3C(=O)O)n2)nn1Cc1ccccc1F` [Compound I-463], the EC50 lay in the range of 0.101 to 1 µM.
Regarding `O=C1CC(C(=O)Nc2ccnc(-c3cc(-c4ccon4)n(Cc4ccccc4F)n3)n2)CN1` (stereo not shown) [Compound I-464], the 50% effective concentration (EC50) fell in the range of 0.101 to 1 µM.
For `O=C(Nc1nc(-c2cc(-c3ccon3)n(Cc3ccccc3F)n2)ncc1F)C(F)(F)F` [Compound I-465], the EC50 lay within 0.101 to 1 µM.
As to `Fc1ccccc1Cn1nc(-c2ncc(F)c(NCC(F)(F)F)n2)cc1-c1ccon1` [Compound I-466], the EC50 is < 0.1 µM.
On the same count and under the same terms, next, `O=C(O)C(O)(CNc1nc(-c2cc(-c3ccon3)n(Cc3ccccc3F)n2)ncc1F)C(F)(F)F` (stereo not shown) [Compound I-467]: > 1 µM; `O=C(Nc1nc(-c2cc(-c3ccon3)n(Cc3ccccc3F)n2)ncc1N1CCOCC1)C(O)(C(F)(F)F)C(F)(F)F` [Compound I-468]: 0.101 to 1 µM.
Still for that read-out and setting: in the case of `O=C(Cc1nccs1)Nc1ccnc(-c2cc(-c3ccon3)n(Cc3ccccc3F)n2)n1` [Compound I-469] it was 0.101 to 1 µM; in that of `O=C(N1CC(Nc2nc(-c3cc(-c4ccon4)n(Cc4ccccc4F)n3)ncc2F)C1)C1(O)CC1` [Compound I-470], < 0.1 µM.
`O=C(CC(F)(F)F)Nc1ccnc(-c2cc(-c3ccon3)n(Cc3ccccc3F)n2)n1` [Compound I-471]: the 50% effective concentration (EC50) lay in the range of 0.101 to 1 µM.
The same measure, in the same setting: next, `CS(=O)(=O)CS(=O)(=O)Nc1ccnc(-c2cc(-c3ccon3)n(Cc3ccccc3F)n2)n1` [Compound I-472]: > 1 µM.
For the compound `N#Cc1cc(-c2ncc(F)c(NCC(O)(C(F)(F)F)C(F)(F)F)n2)nn1Cc1ccccc1F` [Compound I-474], the EC50 was > 1 µM.
The same measure, in the same setting: next, `CC(=O)O[C@@H](C(=O)Nc1ccnc(-c2cc(-c3ccon3)n(Cc3ccccc3F)n2)n1)C(F)(F)F` [Compound I-475]: 0.101 to 1 µM; `O=C(O)c1cc(-c2ncc(F)c(NCC(O)(C(F)(F)F)C(F)(F)F)n2)nn1Cc1ccccc1F` [Compound I-476]: > 1 µM.
The same measure, in the same setting: next, `O=C(Nc1nc(-c2cc(-c3ccon3)n(Cc3ccccc3F)n2)ncc1F)N1CCOCC1` [Compound I-477]: > 1 µM; `O=C(Nc1ccnc(-c2cc(-c3ccon3)n(Cc3ccccc3F)n2)n1)C1(O)CC1` [Compound I-478]: < 0.1 µM.
On the same count and under the same terms, in the case of `COCCS(=O)(=O)Nc1ccnc(-c2cc(-c3ccon3)n(Cc3ccccc3F)n2)n1` [Compound I-479] it was 0.101 to 1 µM; in that of `CN(CC1(C(=O)O)CC1)c1nc(-c2cc(C#N)n(Cc3ccccc3F)n2)ncc1F` [Compound I-480], 0.101 to 1 µM.
On to `CN(CC1(C(=O)O)CC1)c1nc(-c2cc(C(N)=O)n(Cc3ccccc3F)n2)ncc1F` [Compound I-481], for which the concentration for a half-maximal effect (EC50) is > 1 µM.
With `O=C1OC(C(F)(F)F)CN1c1ccnc(-c2cc(-c3ccon3)n(Cc3ccccc3F)n2)n1` (stereo not shown) [Compound I-482], the EC50 is > 1 µM.
Same read-out and setting: in the case of `O=[N+]([O-])c1cnc(-c2cc(-c3ccon3)n(Cc3ccccc3F)n2)nc1NCC(O)(C(F)(F)F)C(F)(F)F` [Compound I-483] it was > 1 µM; in that of `Nc1cnc(-c2cc(-c3ccon3)n(Cc3ccccc3F)n2)nc1NCC(O)(C(F)(F)F)C(F)(F)F` [Compound I-484], 0.101 to 1 µM.
With `O=C1CC(Nc2nc(-c3cc(-c4ccon4)n(Cc4ccccc4F)n3)ncc2F)CN1` (stereo not shown) [Compound I-485], the EC50 was < 0.1 µM.
On to `NS(=O)(=O)CCCC(=O)Nc1ccnc(-c2cc(-c3ccon3)n(Cc3ccccc3F)n2)n1` [Compound I-486], for which the concentration for a half-maximal effect (EC50) is > 1 µM.
The same measure, in the same setting: next, `CS(=O)(=O)CCNc1nc(-c2cc(-c3ccon3)n(Cc3ccccc3F)n2)ncc1F` [Compound I-487]: < 0.1 µM; `OC(CNc1nc(-c2cc(-c3ccon3)n(Cc3cccc(F)c3F)n2)ncc1F)(C(F)(F)F)C(F)(F)F` [Compound I-488]: 0.101 to 1 µM; `O=C(O)C(O)(CNc1nc(-c2cc(-c3ccon3)n(Cc3cccc(F)c3F)n2)ncc1F)C(F)(F)F` (stereo not shown) [Compound I-489]: > 1 µM.
Same read-out and setting: next, `O=C(CC(O)(C(F)(F)F)C(F)(F)F)Nc1ccnc(-c2cc(-c3ccon3)n(Cc3ccccc3F)n2)n1` [Compound I-490]: 0.101 to 1 µM.
On the same count and under the same terms, in the case of `O=S(=O)(Cc1ccc(F)cc1)Nc1ccnc(-c2cc(-c3ccon3)n(Cc3ccccc3F)n2)n1` [Compound I-491] it was 0.101 to 1 µM.
